# Assay results taken from patent US8044075B2, “IL-8 receptor antagonists” (GlaxoSmithKline, priority 2006, dated 2011).
# pIC50: −log10 of the molar value.
# Tested on: Primary human neutrophils
# Assay: Neutrophil chemotaxis assay (IL-8 or GRO-α as chemoattractant)
# Format: cell-based
# Conditions: 0.75 h, IL-8 or GRO-α at EC80, 45 minutes, span over all compounds tested, units (nM, uM) given within the value, read-out: IC50 range of the compounds tested, neutrophil chemotaxis
# Protocol: The in vitro inhibitory properties of these compounds were determined in a neutrophil chemotaxis assay. Primary human neutrophils were isolated from peripheral whole blood using percoll discontinuous gradient centrifugation, dextran sedimentation and hypotonic lysis. The chemoattractants IL-8 (CXCL8) or GRO-α (CXCL1) were placed in the bottom chamber of a 96 multi-well chamber (ChemoTx System, Neuro Probe, Gaithersburg, Md.). The agonist concentration used was an EC80 concentration. The two chambers are separated by a 5 um polycarbonate membrane. When compounds of this invention were tested, they were preincubated with the cells prior to placement on the top of the filter. Chemotaxis was allowed to proceed for 45 minutes in a humidified incubator at 37° C. with 5% CO2. At the end of the incubation period, the membrane was removed and the migrated cells in the bottom chamber were transferred to a 96-well plate. These cells were measured using a luminescent cell viability assay (Celltiter-Glo, Promega, Madison, Wis.). Each sample was tested in duplicate and each compound repeated at least three times. Positive control cells were cells without compound added and represent the maximum chemotactic response. The negative control (unstimulated) was with no chemokine added to the bottom chamber. The difference between the positive control and the negative control represents the chemotactic activity of the cells.
row,Compound,IC50
1,"O=C(Nc1nnc(C2(c3cccc(F)c3)CCC2)s1)c1cc(S(=O)(=O)NCC2CC2)ccc1F [Example 77, 5-{[(cyclopropylmethyl)amino]sulfonyl}-2-fluoro-N-{5-[1-(3-fluorophenyl)-cyclobutyl]-1,3,4-thiadiazol-2-yl}-benzamide]",63 to 8000 nM
2,"CC(C)(c1ccccc1)c1nnc(NC(=O)c2cc(S(=O)(=O)NC3CC3)ccc2F)s1 [Example 49, 5-[(cyclopropylamino)sulfonyl]2-fluoro-N-[5-(1-methyl-1-phenylethyl)-1,3,4-thiadiazol-2-yl]benzamide]",63 to 8000 nM
3,"CCNS(=O)(=O)c1cc(F)c(F)c(C(=O)Nc2nnc(C(C)(C)c3ccccc3)s2)c1 [Example 29, 5-[(ethylamino)sulfonyl]-2,3-difluoro-N-[5-(1-methyl-1-phenylethyl)-1,3,4-thiadiazol-2-yl]benzamide]",63 to 8000 nM
4,"CCNS(=O)(=O)c1ccc(F)c(C(=O)Nc2nnc(C3CCCC3)s2)c1 [Example 58, N-(5-cyclopentyl-1,3,4-thiadiazol-2-yl)-5-[(ethylamino)sulfonyl]-2-fluorobenzamide]",63 to 8000 nM
5,"CCNS(=O)(=O)c1cc(F)c(F)c(C(=O)Nc2nnc(-c3ccc(F)cc3)s2)c1 [Example 6, 5-[(ethylamino)sulfonyl]-2,3-difluoro-N-[5-(4-fluorophenyl)-1,3,4-thiadiazol-2-yl]benzamide]",63 to 8000 nM
6,"CCNS(=O)(=O)c1ccc(F)c(C(=O)Nc2nnc(C(C)(C)c3ccccc3F)s2)c1 [Example 63, 5-[(ethylamino)sulfonyl]-2-fluoro-N-{5-[1-(2-fluorophenyl)-1-methylethyl]-1,3,4-thiadiazol-2-yl}-benzamide]",63 to 8000 nM
7,"O=C(Nc1nnc(-c2ccc(F)cc2)s1)c1cc(S(=O)(=O)Nc2ccccc2)ccc1F [Example 20, 2-fluoro-N-[5-(4-fluorophenyl)-1,3,4-thiadiazol-2-yl]-5-[(phenylamino)sulfonyl]benzamide]",63 to 8000 nM
8,"CCNS(=O)(=O)c1ccc(F)c(C(=O)Nc2nnc(C3(c4cccc(F)c4)CCC3)s2)c1 [Example 76, 5-[(ethylamino)sulfonyl]-2-fluoro-N-{5-[1-(3-fluorophenyl)-cyclobutyl]-1,3,4-thiadiazol-2-yl}-benzamide]",63 to 8000 nM
9,"CCNS(=O)(=O)c1ccc(F)c(C(=O)Nc2nnc(C(C)(C)c3ccccc3)s2)c1 [Example 1, 5-[(ethylamino)sulfonyl]-2-fluoro-N-[5-(1-methyl-1-phenylethyl)-1,3,4-thiadiazol-2-yl]benzamide]",63 to 8000 nM
10,"CC(C)CNS(=O)(=O)c1ccc(F)c(C(=O)Nc2nnc(-c3ccc(F)cc3)s2)c1 [Example 18, 2-fluoro-N-[5-(4-fluorophenyl)-1,3,4-thiadiazol-2-yl]-5-{[(2-methylpropyl)amino]sulfonyl}benzamide]",63 to 8000 nM
11,"NS(=O)(=O)c1ccc(F)c(C(=O)Nc2nnc(-c3ccc(F)cc3)s2)c1 [Example 44, 5-(aminosulfonyl)-2-fluoro-N-[5-(4-fluorophenyl)-1,3,4-thiadiazol-2-yl] benzamide]",63 to 8000 nM

# Second part, the molecule after the results:
row,IC50,Compound
1,63 to 8000 nM,"CC(C)(c1ccccc1)c1nnc(NC(=O)c2cc(S(N)(=O)=O)cc(Cl)c2Cl)s1 [Example 36, 5-(aminosulfonyl)-2,3-dichloro-N-[5-(1-methyl-1-phenylethyl)-1,3,4-thiadiazol-2-yl]benzamide]"
2,63 to 8000 nM,"O=C(Nc1nnc(C2(c3cccc(F)c3)CCC2)s1)c1cc(S(=O)(=O)NCC(F)(F)F)ccc1F [Example 72, 2-fluoro-N-{5-[1-(3-fluorophenyl)-cyclobutyl]-1,3,4-thiadiazol-2-yl}-5-([(2,2,2-trifluoroethyl)amino]-sulfonyl}benzamide]"
3,63 to 8000 nM,"CC(C)(C)c1nnc(NC(=O)c2cc(S(N)(=O)=O)ccc2F)s1 [Example 39, 5-(aminosulfonyl)-N-[5-(1,1-dimethylethyl)-1,3,4-thiadiazol-2-yl]-2-fluorobenzamide]"
4,63 to 8000 nM,"CCNS(=O)(=O)c1cc(F)c(Cl)c(C(=O)Nc2nnc(-c3ccc(F)cc3)s2)c1 [Example 22, 2-chloro-5-[(ethylamino)sulfonyl]-3-fluoro-N-[5-(4-fluorophenyl)-1,3,4-thiadiazol-2-yl]-benzamide]"
5,63 to 8000 nM,"CCNS(=O)(=O)c1ccc(F)c(C(=O)Nc2nnc(C3(C)CCCC3)s2)c1 [Example 59, 5-[(ethylamino)sulfonyl]-2-fluoro-N-[5-(1-methylcyclopentyl)-1,3,4-thiadiazol-2-yl]benzamide]"
6,63 to 8000 nM,"CCNS(=O)(=O)c1ccc(F)c(C(=O)Nc2nnc(C3(C)CCCCC3)s2)c1 [Example 57, 5-[(cthylamino)sulfonyl]-2-fluoro-N-[5-(1-methylcyclohexyl)-1,3,4-thiadiazol-2-yl] benzamide]"
7,63 to 8000 nM,"CCNS(=O)(=O)c1ccc(F)c(C(=O)Nc2nnc(C3(c4ccccc4)CCC3)s2)c1 [Example 92, 5-[(ethylamino)sulfonyl]-2-fluoro-N-[5-(1-phenylcyclobutyl)-1,3,4-thiadiazol-2-yl]-benzamide]"
8,63 to 8000 nM,"CCNS(=O)(=O)c1cc(F)c(F)c(C(=O)Nc2nnc(C(C)(C)C)s2)c1 [Example 27, N-[5-(1,1-dimethylethyl)-1,3,4-thiadiazol-2-yl]-5-[(ethylamino)sulfonyl]-2,3-difluorobcnzamidc]"

# Tested on: GROα-induced expression of the integrin CD11b on neutrophils in human whole blood
# Assay: CD11b human whole blood assay
# Format: cell-based
# Conditions: Neutrophil, 10 nM GROα, read-out: IC50, inhibition of GROα-induced CD11b expression
# Protocol: The compounds indicated were tested for their ability to inhibit the GROα-induced expression of the integrin CD11b on neutrophils in human whole blood.
# Blood was drawn (9 ml) using a butterfly line and a 10 ml syringe containing 0.2 ml of working Sodium Heparin. The blood was kept at 37° C. until placed on ice in step 5 below. Compound stock solutions were then diluted to 12 times the maximum final concentration, 120 uM. Half Log serial dilutions were then performed in vehicle. Ten microliters of the compound dilutions or vehicle were then added to the appropriate 12×75 polypropylene tubes. One hundred microliters of whole blood was added per tube and incubated for 10 minutes, in a 37° C. water bath with initial (gentle) agitation and again at 5 minutes. The GROα stock was diluted 1:166.66 in 0.1% BSA-DPBS to “12x” concentration of 120 nM and 10 ul of the GROα dilution or 0.1% BSA-DPBS was added to the appropriate tubes so that the final GROα concentration equaled 10 nM. The tubes were incubated for 10 min at 37° C. with gentle hand agitation and again at 5 minutes. Samples were then placed on ice and 250 ul of ice cold CellFix working dilution was added followed by a one minute incubation on ice. 1.5 ml Eppendorf tubes were readied during GROα incubation by adding the appropriate antibodies. Every tube received 10 ul of CD11b-FITC and 5 ul of CD 16-PE, except for the isotype control which received 10 ul of IgG2a-FITC instead of CD11b. Addition of 50 ul of the fixed blood from each tube was added to the appropriate Eppendorf tube. Samples were allowed to then incubate for 20 min at 4° C. in the dark. Addition of the blood/antibody mixtures to 500 ul of cold DPBS were added to the appropriately labeled 12×75 polystyrene tube. The resulting mixture was kept on ice. LDS stock (10 ul) was added and the mixture was incubated for 10 min at 4° C. before flow analysis. Samples were kept in a darkened environment. The LDS addition was staggered as the samples were collected on the flow cytometer so that all samples were run ˜10-20 minutes post-LDS addition. […]
row,Compound,pIC50
1,"CCNS(=O)(=O)c1ccc(F)c(C(=O)Nc2nnc(C3(c4ccccc4)CCCC3)s2)c1 [Example 52, 5-[(ethylamino)sulfonyl]-2-fluoro-N-[5-(1-phenylcyclopentyl)-1,3,4-thiadiazol-2-yl]benzamide]",> 5.30
2,"CCNS(=O)(=O)c1ccc(F)c(C(=O)Nc2nnc(C(C)(C)C)s2)c1 [Example 28, N-[5-(1,1-dimcthylcthyl)-1,3,4-thiadiazol-2-yl]-5-[(ethylamino)sulfonyl]-2-fluorobenzamide]",> 5.30
3,"CC(C)(c1ccccc1)c1nnc(NC(=O)c2cc(S(N)(=O)=O)ccc2F)s1 [Example 61, 5-(aminosulfonyl)-2-fluoro-N-[5-(1-methyl-1-phenylethyl)-1,3,4-thiadiazol-2-yl]-benzamide]",> 5.30
